Several values for one entry are separate records, joined by “and”; a condition that tells them apart may be missing. Equal entries are not always repeated.

In general, IC50 refers to the concentration needed to halve the response being measured.

Test [1] concerns PolII CTD Ser5 and CDK2 Thr160 phosphorylation in 22Rv1 cells. Kind of test: Immunoblotting of CDK7 targets, 22Rv1. Format: cell-based, human. The protocol: Whole-cell lysates were prepared in RIPA buffer (Sigma-Aldrich), supplemented with protease and phosphatase inhibitor cocktails (Roche). Protein sample concentrations were determined using the Pierce BCA Protein Assay kit (ThermoFisher Scientific). […] PolII CTD phosphorylation antibodies (P-Ser2 (ab5095) and P-Ser5 (ab5131), used at 1:10,000 dilution), as well as total PolII (ab817; 1:2000 dilution) and β-actin (ab6276; 1:100,000 dilution) were purchased from Abcam.
On the technique in general: A western blot detects proteins with antibodies after separation by electrophoresis.

Test [2] deals with 22Rv1 CDK7-D97N CL3 cells. Kind of test: Growth assay (SRB), 22Rv1 homozygous CDK7-D97N clone CL3. Format: cell-based. As to conditions: Homo sapiens; 22Rv1 CDK7-D97N complete knock-in clone CL3; Figure R1; read-out: IC50, growth inhibition. The protocol:
To determine the IC50 of drug treatments on growth, cells were seeded in 96-well culture plates. Two days after seeding, the cells were treated with increasing concentrations of drugs and incubated for 4 days. Cell number was determined using the SRB assay (Skehan et al, [1990]), and IC50 values were calculated using non-linear regression curve fitting in GraphPad Prism v10. For all other growth experiments, cells were seeded into 96-well plates, and appropriate drugs were added 2 days after seeding. Cells were then incubated in an IncuCyte Zoom live-cell imager, with cell confluency measured every 6 h. Cell doubling times were determined by non-linear curve fitting (exponential growth equation) in GraphPad Prism v10.
Alt-R^TM S.p. Cas9 nuclease V3, Alt-R CRISPR-Cas9 crRNA, TracrRNA and the donor templates were obtained from Integrated DNA Technologies. […] Cells were treated with 0.7 µM of Alt-R HDR Enhancer V2 to improve HRD efficiency. Sequences of the CRISPRs in the crRNA and the donor templates are shown in the Reagents and tools table. Donor templates were designed to include non-coding substitutions to aid genome DNA PCR for identifying knock-in events and to facilitate cloning; these substitutions are noted in the Reagents and tools table.

The mark [3] stands for this setting: 22Rv1, 5nM SY1365, Vehicle = 1.00.
Setting [4] is: 22Rv1, 50nM SY1365, Vehicle = 1.00.

`CN(C)C/C=C/C(=O)Nc1ccc(C(=O)N[C@@]2(C)CCC[C@@H](Nc3ncc(Cl)c(-c4c[nH]c5ccccc45)n3)C2)nc1` [SY-1365]: in test [1] (setting [3]), the “Relative Density P-Ser2” value is 1.04 and 0.55 and 0.68; the “Relative Density P-Ser5” value is 0.62 and 1.03; the “Relative Density ß-actin” value was 0.99 and 1.00. For the same compound, in test [1] (setting [4]), the “Relative Density P-Ser5” value was 0.61 and 0.64 and 1.06; the “Relative Density ß-actin” value was 1.04 and 0.98 and 1.03.

Regarding `CC(C)c1cnn2c(NCc3ccccc3)cc(NC[C@H]3CCNC[C@@H]3O)nc12` [Samuraciclib], the half-inhibitory concentration (IC50) in test [2] stood at 1420 nM.

(Values after paper PMC12528448, “Resistance to CDK7 inhibitors directed by acquired mutation of a conserved residue in cancer cells” (The EMBO Journal, 2025).)
